The values that follow come from patent publication US20210238162A1, “CHEMICAL COMPOUNDS” (GlaxoSmithKline Intellectual Property Development Limited, priority 2015, published 2021).

Molecules are shown by their SMILES. Structures can show the parent of a compound that is named as a salt.

For the first test, the target named is T1, haematopoietic prostaglandin D synthase (H-PGDS) (Homo sapiens, UniProt O60760).
T1 construct: Full length human H-PGDS cDNA (Invitrogen Ultimate ORF IOH13026) was amplified by PCR; made in house; host or cells: E. coli BL21 (DE3*), vector pET22b+
T1 sequence (O60760 whole entry): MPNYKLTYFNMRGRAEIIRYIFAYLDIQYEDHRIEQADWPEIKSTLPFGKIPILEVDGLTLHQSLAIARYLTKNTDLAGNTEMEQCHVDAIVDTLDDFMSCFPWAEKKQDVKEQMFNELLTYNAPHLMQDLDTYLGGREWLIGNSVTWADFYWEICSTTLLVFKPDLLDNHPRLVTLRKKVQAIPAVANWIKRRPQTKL
Nature of the test: H-PGDS RapidFire High Throughput Mass Spectrometry Assay. It counts as biochemical. The following applies: H-PGDS RapidFire MS assay, mean pIC50; read-out: Potency Range (mean pIC50) (converted). The essentials:
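PGH2 (~10 μM burst) generated in situ from arachidonic acid by FLAG-tagged human COX-2 (Sf9-expressed), then converted to PGD2 by full-length human His-tagged H-PGDS from E. coli. PGD2 and PGF2α (substrate surrogate) quantified by RapidFire SPE-triple quadrupole MS; percent conversion calculated.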
Regarding `COC(=O)[C@H]1CC[C@H](NC(=O)c2cnc3cc(OC(F)F)c(F)cc3c2)CC1` [Example 86, trans-Methyl 4-(7-(difluoromethoxy)-6-fluoroquinoline-3-carboxamido)cyclohexanecarboxylate], the IC50 was under 10 nM.
Still for that read-out and setting: the figure for `O=C(N[C@H]1CC[C@H]([C@@H](O)C(F)(F)F)CC1)c1cnc2cc(OC(F)F)ccc2c1` (single isomer, unassigned) [Example 20] is under 10 nM; for `CC(C)(O)[C@H]1CC[C@H](NC(=O)c2cnc3cc(NC4CC4)c(Cl)cc3c2)CC1` [Example 213, 6-Chloro-7-(cyclopropylamino)-N-((trans)-4-(2-hydroxypropan-2-yl)cyclohexyl)quinoline-3-carboxamide] it is under 10 nM; for `CS(=O)(=O)CCO[C@H]1CC[C@H](NC(=O)c2cnc3cc(OC(F)F)c(F)cc3c2)CC1` [Example 94, 7-(Difluoromethoxy)-6-fluoro-N-(trans-4-(2-(methylsulfonyl)ethoxy)cyclohexyl)quinoline-3-carboxamide] it is 10 to 79.4 nM.
Still for that read-out and setting: the figure for `C[N+](C)([O-])[C@H]1CC[C@H](NC(=O)c2cnc3cc(OC(F)F)c(Cl)cc3c2)CC1` [Example 208, trans-4-(6-Chloro-7-(difluoromethoxy)quinoline-3-carboxamido)-N,N-dimethylcyclohexanamine oxide] is 10 to 79.4 nM.
For `CN(C)C(=O)[C@H]1CC[C@H](NC(=O)c2cnc3cc(OC(F)F)ccc3c2)CC1` [Example 5, 7-(Difluoromethoxy)-N-((trans)-4-(dimethylcarbamoyl)cyclohexyl)quinoline-3-carboxamide], the IC50 is 10 to 79.4 nM.
Still for that read-out and setting: the value for `O=C(NC1CCN(CC(F)F)CC1)c1cnc2cc(OC(F)F)c(F)cc2c1` [Example 65, N-(1-(2,2-Difluoroethyl)piperidin-4-yl)-7-(difluoromethoxy)-6-fluoroquinoline-3-carboxamide] was 10 to 79.4 nM; that for `CCOc1ccc2cc(C(=O)N[C@H]3CC[C@H](C(C)(C)O)CC3)cnc2c1Cl` [Example 218, 8-Chloro-7-ethoxy-N-(trans-4-(2-hydroxypropan-2-yl)cyclohexyl)quinoline-3-carboxamide] was 10 to 79.4 nM; that for `O=C(N[C@H]1C[C@H](NCC(F)(F)F)C1)c1cnc2cc(OC(F)F)c(F)cc2c1` [Example 59, 7-(Difluoromethoxy)-6-fluoro-N-(trans-3-((2,2,2-trifluoroethyl)amino)cyclobutyl)quinoline-3-carboxamide] was 10 to 79.4 nM.
Still for that read-out and setting: the value for `O=C(N[C@H]1CC[C@H](C2(O)CC2)CC1)c1cnc2cc(OC(F)F)ccc2c1` [Example 18, 7-(Difluoromethoxy)-N-(trans-4-(1-hydroxycyclopropyl)cyclohexyl)quinoline-3-carboxamide] was under 10 nM.
Same read-out and setting: the figure for `O=C(N[C@H]1CCNC1=O)c1cnc2cc(C3CC3)c(Cl)cc2c1` [Example 35, (S)-6-Chloro-7-cyclopropyl-N-(2-oxopyrrolidin-3-yl)quinoline-3-carboxamide hydrochloride] is under 10 nM; for `CC(C)(O)C(=O)N1CC(NC(=O)c2cnc3cc(OC(F)F)c(Cl)cc3c2)C1` [Example 221, 6-Chloro-7-(difluoromethoxy)-N-(1-(2-hydroxy-2-methylpropanoyl)azetidin-3-yl)quinoline-3-carboxamide] it is 100 to 1000 nM; for `CC(C)C(O)CO[C@H]1CC[C@H](NC(=O)c2cnc3cc(OC(F)F)c(Cl)cc3c2)CC1` (stereo partly drawn) [Example 127, 6-Chloro-7-(difluoromethoxy)-N-(trans-4-(2-hydroxy-3-methylbutoxy)cyclohexyl)quinoline-3-carboxamide] it is under 10 nM.
Regarding `O=C(N[C@H]1CC[C@H](N2CC(F)(F)C2)CC1)c1cnc2cc(OC(F)F)c(F)cc2c1` [Example 71, N-(trans-4-(3,3-Difluoroazetidin-1-yl)cyclohexyl)-7-(difluoromethoxy)-6-fluoroquinoline-3-carboxamide], the IC50 was 10 to 79.4 nM.
The same measure, in the same setting: the figure for `CC(C)(O)[C@H]1CC[C@H](NC(=O)c2cnc3cc(N4CCC4)ccc3c2)CC1` [Example 194, 7-(Azetidin-1-yl)-N-(trans-4-(2-hydroxypropan-2-yl)cyclohexyl)quinoline-3-carboxamide] is under 10 nM; for `CC(F)(F)c1cc2ncc(C(=O)N[C@H]3CC[C@H](C(C)(C)O)CC3)cc2cc1Cl` [Example 231, 6-Chloro-7-(1,1-difluoroethyl)-N-((trans)-4-(2-hydroxypropan-2-yl)cyclohexyl)quinoline-3-carboxamide] it is under 10 nM.
On the same count and under the same terms, the value for `CC(C)C(O)CO[C@H]1CC[C@H](NC(=O)c2cnc3cc(OC(F)F)c(F)cc3c2)CC1` (stereo partly drawn) [Example 79, 7-(Difluoromethoxy)-6-fluoro-N-(trans-4-(2-hydroxy-3-methylbutoxy)cyclohexyl)quinoline-3-carboxamide] was 10 to 79.4 nM.
The same measure, in the same setting: the figure for `CC(C)(O)[C@H]1CC[C@H](NC(=O)c2cnc3cc(OC(F)F)c(F)cc3c2)CC1` [Example 51, 7-(Difluoromethoxy)-6-fluoro-N-(trans-4-(2-hydroxypropan-2-yl)cyclohexyl)quinoline-3-carboxamide] is 10 to 79.4 nM; for `O=C(N[C@H]1CC[C@H]([C@H](O)C(F)(F)F)CC1)c1cnc2cc(OC(F)F)ccc2c1` (single isomer, unassigned) [Example 21] it is under 10 nM.
Take `O=C(N[C@H]1CC[C@](O)(C(F)F)CC1)c1cnc2cc(OC(F)F)c(Cl)cc2c1` [Example 233, 6-Chloro-7-(difluoromethoxy)-N-((1s,4s)-4-(difluoromethyl)-4-hydroxycyclohexyl)quinoline-3-carboxamide]: the IC50 was 10 to 79.4 nM.
Same read-out and setting: the value for `CCOC(=O)C[C@H]1CC[C@H](NC(=O)c2cnc3cc(OC(F)F)c(F)cc3c2)CC1` [Example 88, Ethyl 2-(trans-4-(7-(difluoromethoxy)-6-fluoroquinoline-3-carboxamido)cyclohexyl)acetate] was 10 to 79.4 nM; that for `C[C@H]1CCN1c1cc2ncc(C(=O)N[C@H]3CCNC3=O)cc2cc1Cl` [Example 188, 6-Chloro-7-((S)-2-methylazetidin-1-yl)-N—((S)-2-oxopyrrolidin-3-yl)quinoline-3-carboxamide] was 10 to 79.4 nM.
Same read-out and setting: the value for `O=C(N[C@H]1CC[C@](O)(C(F)(F)F)CC1)c1cnc2cc(OC(F)F)c(Cl)cc2c1` [Example 223, 6-Chloro-7-(difluoromethoxy)-N-((cis)-4-hydroxy-4-(trifluoromethyl)cyclohexyl)quinoline-3-carboxamide] was 10 to 79.4 nM.
The same measure, in the same setting: the value for `CS(=O)(=O)N1CCC(NC(=O)c2cnc3cc(OC(F)F)ccc3c2)CC1` [Example 7, 7-(Difluoromethoxy)-N-(1-(methylsulfonyl)piperidin-4-yl)quinoline-3-carboxamide] was 10 to 79.4 nM.
For the compound `O=C(N[C@H]1CC[C@H](C(O)C2CC2)CC1)c1cnc2cc(OC(F)F)ccc2c1` (stereo partly drawn) [Example 14, N-(trans-4-(-Cyclopropyl(hydroxy)methyl)cyclohexyl)-7-(difluoromethoxy)quinoline-3-carboxamide], the IC50 is under 10 nM.
As for `CC1C[C@H](NC(=O)c2cnc3cc(OC(F)F)c(Cl)cc3c2)C(=O)N1` (mixture of isomers) [Example 133, 6-Chloro-7-(difluoromethoxy)-N-((3S)-5-methyl-2-oxopyrrolidin-3-yl)quinoline-3-carboxamide], the IC50 was 10 to 79.4 nM.
The same measure, in the same setting: the value for `CC(C)(O)CO[C@H]1CC[C@H](NC(=O)c2cnc3cc(OC(F)F)ccc3c2)CC1` [Example 12, 7-(Difluoromethoxy)-N-(trans-4-(2-hydroxy-2-methylpropoxy)cyclohexyl)quinoline-3-carboxamide] was 10 to 79.4 nM; that for `CN1CCN(C(=O)[C@H]2CC[C@H](NC(=O)c3cnc4cc(OC(F)F)c(Cl)cc4c3)CC2)CC1` [Example 211, 6-Chloro-7-(difluoromethoxy)-N-((trans)-4-(4-methylpiperazine-1-carbonyl)cyclohexyl)quinoline-3-carboxamide] was 10 to 79.4 nM.
Same read-out and setting: the figure for `CC(C)(O)[C@H]1CC[C@H](NC(=O)c2cnc3cc([S+]([O-])C(F)F)c(F)cc3c2)CC1` (stereo partly drawn) [Example 185, 7-((Difluoromethyl)sulfinyl)-6-fluoro-N-(trans-4-(2-hydroxypropan-2-yl)cyclohexyl)quinoline-3-carboxamide] is 10 to 79.4 nM; for `CN(C)c1ccc2cc(C(=O)N[C@H]3CC[C@H](C(C)(C)O)CC3)cnc2c1` [Example 196, 7-(Dimethylamino)-N-(trans-4-(2-hydroxypropan-2-yl)cyclohexyl)quinoline-3-carboxamide] it is under 10 nM; for `COc1cc2ncc(C(=O)NC3CCN(c4nnnn4C)CC3)cc2cc1Cl` [Example 32, 6-Chloro-7-methoxy-N-(1-(1-methyl-1H-tetrazol-5-yl)piperidin-4-yl)quinoline-3-carboxamide] it is 10 to 79.4 nM.
With `CC(C)(N[C@H]1CC[C@H](NC(=O)c2cnc3cc(OC(F)F)c(F)cc3c2)CC1)C(F)(F)F` [Example 66, 7-(Difluoromethoxy)-6-fluoro-N-(trans-4-((1,1-trifluoro-2-methylpropan-2-yl)amino)cyclohexyl)quinoline-3-carboxamide], the IC50 was under 10 nM.
On the same count and under the same terms, the figure for `CC(C)(O)[C@H]1CC[C@H](NC(=O)c2cnc3cc4c(cc3c2)OCO4)CC1` [Example 195, N-(trans-4-(2-Hydroxypropan-2-yl)cyclohexyl)-[1,3]dioxolo[4,5-q]quinoline-7-carboxamide] is 100 to 1000 nM; for `CC(C)(O)[C@H]1C[C@H](NC(=O)c2cnc3cc(OC(F)F)c(Cl)cc3c2)C1` [Example 118, 6-Chloro-7-(difluoromethoxy)-N-(trans-3-(2-hydroxypropan-2-yl)cyclobutyl)quinoline-3-carboxamide] it is under 10 nM.

Still in this test, the particulars now being: in at least one experimental run; read-out: H-PGDS pIC50 value (converted).
With `O=C(N[C@H]1CC[C@H]([C@@H](O)C(F)(F)F)CC1)c1cnc2cc(OC(F)F)ccc2c1` (single isomer, unassigned) [Example 20], the IC50 is 7.94 nM.
The same measure, in the same setting: the figure for `O=C(N[C@H]1C[C@H](NCC(F)(F)F)C1)c1cnc2cc(OC(F)F)c(F)cc2c1` [Example 59, 7-(Difluoromethoxy)-6-fluoro-N-(trans-3-((2,2,2-trifluoroethyl)amino)cyclobutyl)quinoline-3-carboxamide] is 50.1 nM; for `CC(C)(O)[C@H]1C[C@H](NC(=O)c2cnc3cc(OC(F)F)c(Cl)cc3c2)C1` [Example 118, 6-Chloro-7-(difluoromethoxy)-N-(trans-3-(2-hydroxypropan-2-yl)cyclobutyl)quinoline-3-carboxamide] it is 10 nM.
